These results are taken from paper PMC10820527, “Synthesis, Characterization, and Investigation of Anti-Inflammatory and Cytotoxic Activities of Novel Thiourea Derivatives of Naproxen” (Pharmaceutics, 2023).

One test concerns the target T1, COX-2 (Homo sapiens, UniProt P35354).
T1 construct: purchased Abcam
T1 sequence (P35354 18-604): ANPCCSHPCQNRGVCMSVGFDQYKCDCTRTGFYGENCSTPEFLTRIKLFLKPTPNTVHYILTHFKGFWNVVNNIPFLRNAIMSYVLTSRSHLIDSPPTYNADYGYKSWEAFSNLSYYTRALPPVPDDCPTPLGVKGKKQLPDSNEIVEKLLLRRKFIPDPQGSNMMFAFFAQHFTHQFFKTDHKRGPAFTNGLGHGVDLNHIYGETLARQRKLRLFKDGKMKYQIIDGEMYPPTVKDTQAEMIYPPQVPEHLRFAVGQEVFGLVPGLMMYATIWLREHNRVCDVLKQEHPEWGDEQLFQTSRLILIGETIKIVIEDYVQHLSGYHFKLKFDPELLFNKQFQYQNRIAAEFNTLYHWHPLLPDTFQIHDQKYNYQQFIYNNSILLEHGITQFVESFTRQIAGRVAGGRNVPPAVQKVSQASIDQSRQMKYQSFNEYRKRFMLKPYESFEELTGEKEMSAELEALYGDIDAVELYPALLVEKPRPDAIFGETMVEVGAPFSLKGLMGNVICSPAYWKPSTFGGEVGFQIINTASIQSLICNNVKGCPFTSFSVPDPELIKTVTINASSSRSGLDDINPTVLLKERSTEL
Put plainly: Fluorometric COX-2 inhibitor screening kit. The conditions noted are these: mean of two measurements with standard error, read-out: COX-2 Percent of Inhibition. Format: biochemical. Here is the method: The COX-2 and 5-LOX inhibitory potential of the tested compounds was evaluated using a fluorometric COX-2 and 5-LOX inhibitor screening kit (Abcam, Cambridge, UK). These tests are based on determining the presence of prostaglandin G2 (a product of COX enzyme activity) or an intermediate generated by the enzyme 5-LOX, using fluorometric detection. The mentioned experiments were performed according to the manufacturer’s instructions.
For the determination of COX-2 inhibitory potential of tested compounds, stock solutions (5 mM in DMSO) were diluted with the same solvent (test solutions). The test solutions were further diluted with COX assay buffer by mixing 2 µL of the corresponding test solution and 8 µL of COX assay buffer. For the preparation of inhibitory control (IC), celecoxib (2 µL) and COX assay buffer (8 µL) were mixed. Solvent control (SC) was prepared by mixing DMSO (2 µL) and the COX assay buffer (8 µL), enzyme control (EC) was 10 µL of COX assay buffer, while the samples (S) were 10 µL of diluted test solutions. IC, SC, EC, and S were transferred into corresponding wells. For the determination of 5-LOX inhibitory potential of tested compounds, stock solutions of the same concentration (5 mM) were prepared in DMSO. These solutions were further diluted with the same solvent to obtain the test solutions, which were added into the appropriate wells (2 µL). EC, SC, and IC were prepared by adding 2 µL of the assay buffer, DMSO, and zileuton into corresponding wells, respectively.
The fluorescence of the samples was measured kinetically at 25 °C (COX-2: Ex/Em = 535/587 nm, during 10 min; 5-LOX: Ek/Em = 500/536 nm during 20 min) using a Synergi LX multi-mode microplate reader (BioTek, Shoreline, WA, USA).

The subject of test [1] is MRC-5 fibroblast cell line. Nature of the test: MTT cytotoxicity assay, MRC-5. Format: cell-based. The conditions noted are these: Homo sapiens, mean ± SD. Here is the method:
Three cancer cell lines (MDA-MB-231, HCT116 and HeLa; i.e., human breast cancer cells, human colorectal cancer cells, and human cervical cancer cells, respectively), and one non-malignant fibroblast MRC-5 cell line (control) were used in this study. The American Type Cell Collection (ATCC, Manassas, VA, USA) provided all examined cell lines. The cells were grown in a complete medium made up of high-glucose DMEM media supplemented with 10% fetal bovine serum and […] L-glutamine (both from Sigma-Aldrich, USA). The cells were cultured in 25 cc flasks (Thermo Fischer Scientific, Waltham, MA, USA) at 37 °C with 100% humidity in a 5% CO2 atmosphere.
The MTT test was used to assess the cytotoxicity of compounds 1–14 [44]. The cytotoxicity of naproxen was also investigated due to its clinical use and structural similarity. Throughout the exponential development period, cells were taken from culture flasks and counted, and 5 × 10^3 cells/well were planted into 96-well culture plates. Following that, the cell lines were treated with varying doses of the investigated chemicals (1–14), naproxen ([…]), and fresh complete media as a control. All evaluated cells were incubated for 24, 48, and 72 h at 37 °C in an environment containing 5% CO2 and 100% humidity. Following incubation, each well’s culture media was taken out, each well received an addition of MTT solution at a final concentration of 0.5 mg/mL, and the cells were left to incubate for an additional four hours. The MTT solution was then withdrawn carefully, and the formazan crystals were dissolved in DMSO. After shaking the plates for 10 min, absorbance at 595 nm was measured using a multiplate reader (Zenyth 3100, Anthos Labtec Instruments, Salzburg, Austria). All concentrations of the tested compounds were performed in three separate wells of the microtiter plates and in three separate experiments. The results were reported as a ratio to the control value, untreated cells. IC50 values were also determined using Microsoft Office Excel 2021. The percentage of viable cells was estimated by dividing the readout absorbance value in the wells containing treated cells by the average absorbance value measured in the wells containing untreated cells, and multiplying the result by 100 [44]. % of the viable cells = ((absorbance of treated cell-absorbance of blank)/(absorbance of untreated cell-absorbance of blank)) × 100(3)
(Tetrazolium assays rely on reduction of a dye to a coloured formazan, in cell work by metabolically active cells.)

A further test deals with proapoptotic protein Bax. Nature of the test: Assessment of apoptosis: active Bax expression (flow cytometry). The conditions noted are these: HeLa cells, 24 h, IC50 concentration, p > 0.05. The format is cell-based, human. Here is the method:
The aim of this study was to determine the expression of proteins that play a key role in apoptosis. The level of expression of the proapoptotic protein Bax, antiapoptotic protein Bcl-2, and the percentage of cells containing active caspase-3 was evaluated. […] Additionally, HeLa cells were fixed, permeabilized, and rinsed with ice-cold PBS (Fixation and Permeabilization Kit, eBioscience, San Diego, CA, USA). The cells were treated for 15 min at room temperature with a 1:1000 Bcl-2 fluorescein isothiocyanate (FITC) primary antibody (mhbcl01, Life Technologies, Carlsbad, CA, USA) to stain them. For further labeling, permeabilized HeLa cells were incubated with primary antibodies for active-Bax (N20, sc-493; Santa Cruz Biotech Inc., Dallas, TX, USA) and cleaved caspase-3 (#9661, Cell signaling Technology, Danvers, MA, USA) at a ratio of 1:1000 for 30 min. […] With the FC500 (Beckman Coulter), fluorescence of at least 15,000 events/samples had been measured. Negative control antibodies that matched the isotype were used to normalize the fluorescence intensity. The degree of expression of these proteins was indicated by the mean fluorescence intensities for Bax and Bcl-2 (MFIs), which were computed as the ratio of raw mean channel fluorescence to isotype control levels, respectively. […]
A general note: Flow cytometry measures light scatter and fluorescence of single cells or particles in a stream.

Structures are written as SMILES.

Consider `COc1ccc2cc([C@H](C)C(=O)NC(=S)Nc3ccccc3)ccc2c1` [Compound 8, (S)-2-(6-methoxynaphthalen-2-yl)-N-(phenylcarbamothioyl)propanamide], for which, on COX-2, the inhibition at 10 µM stood at 36.2 ± 16.4%. Moreover, the IC50 is more than 200 µM in test [1] (MRC5, 24 h); more than 200 µM in test [1] (MRC5, 48 h); more than 200 µM in test [1] (MRC5, 72 h). In addition, the “Amount of proapoptotic Bax (in words)” value in the test with proapoptotic protein Bax is “insignificantly changed”.
As to `COc1ccc2cc([C@H](C)C(=O)NC(=S)Nc3ccc(C)cc3)ccc2c1` [Compound 9, (S)-2-(6-methoxynaphthalen-2-yl)-N-(p-tolylcarbamothioyl)propanamide], the inhibition at 10 µM on COX-2 worked out at 26.8 ± 6.07%. Moreover, the half-maximal inhibitory concentration (IC50) in test [1] (MRC5, 24 h) was more than 200 µM; in test [1] (MRC5, 48 h), more than 200 µM; in test [1] (MRC5, 72 h) it was more than 200 µM.
In the case of `COc1ccc2cc([C@H](C)C(=O)NC(=S)Nc3ccccc3C)ccc2c1` [Compound 10, (S)-2-(6-methoxynaphthalen-2-yl)-N-(o-tolylcarbamothioyl)propanamide], the inhibition at 10 µM on COX-2 came out at 12.6 ± 4.99%. Also, the IC50 was more than 200 µM in test [1] (MRC5, 24 h); more than 200 µM in test [1] (MRC5, 48 h); more than 200 µM in test [1] (MRC5, 72 h).
As for `COc1ccc2cc([C@H](C)C(=O)NC(=S)Nc3ccccc3OC)ccc2c1` [Compound 11, (S)-2-(6-methoxynaphthalen-2-yl)-N-((2-methoxyphenyl)carbamothioyl)propanamide], the inhibition at 10 µM at COX-2 was determined as 16.2 ± 13.7%. For the same molecule, the IC50 is more than 200 µM in test [1] (MRC5, 24 h); more than 200 µM in test [1] (MRC5, 48 h); more than 200 µM in test [1] (MRC5, 72 h).
With `COc1ccc2cc([C@H](C)C(=O)NC(=S)Nc3ccccc3F)ccc2c1` [Compound 12, (S)-N-((2-fluorophenyl)carbamothioyl)-2-(6-methoxynaphthalen-2-yl)propanamide], at COX-2, the inhibition at 10 µM is 13.8 ± 6.41%. For the same molecule, the IC50 was more than 200 µM in test [1] (MRC5, 24 h); more than 200 µM in test [1] (MRC5, 48 h); more than 200 µM in test [1] (MRC5, 72 h).
In the case of `COC(=O)[C@H](Cc1ccccc1)NC(=S)NC(=O)[C@@H](C)c1ccc2cc(OC)ccc2c1` [Compound 13, Methyl (((S)-2-(6-methoxynaphthalen-2-yl)propanoyl)carbamothioyl)phenylalaninate], the inhibition at 10 µM at COX-2 amounted to 23.1 ± 9.83%. The IC50 in test [1] (MRC5, 24 h) was more than 200 µM; in test [1] (MRC5, 48 h), more than 200 µM; in test [1] (MRC5, 72 h), more than 200 µM.
Take `COC(=O)[C@H](Cc1c[nH]c2ccccc12)NC(=S)NC(=O)[C@@H](C)c1ccc2cc(OC)ccc2c1` [Compound 14, Methyl (((S)-2-(6-methoxynaphthalen-2-yl)propanoyl)carbamothioyl)tryptophanate]: at COX-2, the inhibition at 10 µM was 29.8 ± 12.1%. Further, the IC50 in test [1] (MRC5, 24 h) is more than 200 µM; in test [1] (MRC5, 48 h), more than 200 µM; in test [1] (MRC5, 72 h) it was more than 200 µM.

The inhibition is the percentage by which the read-out fell short of the control. A word on the IC50: it is the concentration at which inhibition is half-maximal. Higher therefore signals a need for much substance.
